Data set [1] addresses T1, human EGFR exon 20 H773_V774insNPH (Homo sapiens, UniProt P00533, INS773NPH).
T1 construct: host or cells: Ba/F3
The data set is described as follows: EGFR Exon20 NPH insertion cellular phosphorylation inhibition (MSD pEGFR Y1068/total EGFR).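 Also: IL3-independent Ba/F3 cells with constitutively phosphorylated EGFR, compound exposure at 37 °C under 5% CO2, electrochemiluminescent MSD measurement of the p-EGFR to total EGFR ratio.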 The format is cell-based. The settings on record: Ba/F3 EGFR NPH ins cells, 4 h compound, p-EGFR(Y1068)/total EGFR.

The target of data set [2] is T2, human EGFR exon 20 V769_D770insASV (Homo sapiens, UniProt P00533, INS769ASV).
T2 construct: expressed in transfected cells; host or cells: Ba/F3 (DSMZ ACC-300), lentiviral transduction, puromycin selection, IL3 depletion
The data set is described as follows: EGFR Exon20 ASV insertion cellular phosphorylation inhibition (MSD pEGFR Y1068/total EGFR).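 Also: electrochemiluminescent readout on an MSD SECTOR Imager, IL3-independent transduced cells in medium with 1% FBS, compound concentration series at 37 °C and 5% CO2.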 The format is cell-based. The settings on record: Ba/F3 EGFR ASV ins cells, 4 h compound, p-EGFR(Y1068)/total EGFR.

The target in data set [3] is T3, EGFR L858R&T790M (Homo sapiens, UniProt P00533, L858R/T790M).
T3 construct: host or cells: NCI-H1975
The data set is described as follows: EGFR L858R and T790M cellular phosphorylation inhibition in NCI-H1975 (MSD).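 Also: phosphorylated and total EGFR detected by electrochemiluminescence, cells exposed to compound in medium containing 1% FBS at 37 °C.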 The settings on record: NCI-H1975 cells, 4 h compound, p-EGFR(Y1068)/total EGFR; read-out: EGFR L858R and T790M mutation IC50. The format is cell-based.

For data set [4], the target named is T4, human Her2 exon 20 insertion mutation YVMA (Homo sapiens, UniProt P04626, INS775YVMA).
T4 construct: expressed in transfected cells; host or cells: NIH-3T3, lentiviral transduction, puromycin selection
T4 sequence (P04626 with tags, fused parts or gaps INS775YVMA): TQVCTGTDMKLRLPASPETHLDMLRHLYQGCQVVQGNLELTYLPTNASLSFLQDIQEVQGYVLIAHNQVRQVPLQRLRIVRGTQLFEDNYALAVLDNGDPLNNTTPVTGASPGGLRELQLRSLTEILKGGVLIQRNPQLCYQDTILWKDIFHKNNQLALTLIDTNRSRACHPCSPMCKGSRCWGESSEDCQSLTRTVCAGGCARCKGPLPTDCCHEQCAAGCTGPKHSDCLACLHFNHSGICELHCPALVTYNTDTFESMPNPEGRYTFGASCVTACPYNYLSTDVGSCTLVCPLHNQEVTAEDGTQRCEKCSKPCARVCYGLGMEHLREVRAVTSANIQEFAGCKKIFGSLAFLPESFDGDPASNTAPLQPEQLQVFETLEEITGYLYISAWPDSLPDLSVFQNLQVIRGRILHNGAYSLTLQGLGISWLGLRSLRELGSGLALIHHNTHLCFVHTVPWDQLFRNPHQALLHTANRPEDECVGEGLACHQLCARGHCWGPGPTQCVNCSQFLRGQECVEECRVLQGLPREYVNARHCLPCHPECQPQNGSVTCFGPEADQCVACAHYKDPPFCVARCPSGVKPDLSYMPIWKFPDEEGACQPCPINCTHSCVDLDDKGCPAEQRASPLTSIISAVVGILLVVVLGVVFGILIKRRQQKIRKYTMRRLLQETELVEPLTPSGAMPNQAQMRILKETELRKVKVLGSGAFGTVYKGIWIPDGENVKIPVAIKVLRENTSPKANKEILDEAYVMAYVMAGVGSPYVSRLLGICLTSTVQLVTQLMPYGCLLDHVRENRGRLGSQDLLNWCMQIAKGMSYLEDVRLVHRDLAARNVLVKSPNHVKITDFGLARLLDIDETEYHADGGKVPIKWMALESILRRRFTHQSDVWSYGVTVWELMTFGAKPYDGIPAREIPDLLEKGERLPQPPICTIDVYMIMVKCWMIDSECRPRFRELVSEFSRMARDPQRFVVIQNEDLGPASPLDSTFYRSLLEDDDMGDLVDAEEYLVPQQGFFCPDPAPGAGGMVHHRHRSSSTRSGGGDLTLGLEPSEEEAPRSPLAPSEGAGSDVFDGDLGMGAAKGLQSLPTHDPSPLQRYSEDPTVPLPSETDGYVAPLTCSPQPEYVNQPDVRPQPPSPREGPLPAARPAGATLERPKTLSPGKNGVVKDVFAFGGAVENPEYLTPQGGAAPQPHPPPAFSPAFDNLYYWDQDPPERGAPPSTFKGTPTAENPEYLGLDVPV
The data set is described as follows: Her2 Exon 20 YVMA insertion cellular phosphorylation inhibition (MSD p-Her2 Y1248/total Her2).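 Also: lentivirally transduced NIH-3T3 cells in 1% FBS medium, electrochemiluminescent MSD read-out, graded compound concentrations at 37 °C.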 The format is cell-based. Particulars: Her2 YVMAins cells, 4 h compound.

Data set [5] deals with T5, WT EGFR (Homo sapiens, UniProt P00533).
T5 construct: host or cells: A-431
T5 sequence (P00533 25-1210): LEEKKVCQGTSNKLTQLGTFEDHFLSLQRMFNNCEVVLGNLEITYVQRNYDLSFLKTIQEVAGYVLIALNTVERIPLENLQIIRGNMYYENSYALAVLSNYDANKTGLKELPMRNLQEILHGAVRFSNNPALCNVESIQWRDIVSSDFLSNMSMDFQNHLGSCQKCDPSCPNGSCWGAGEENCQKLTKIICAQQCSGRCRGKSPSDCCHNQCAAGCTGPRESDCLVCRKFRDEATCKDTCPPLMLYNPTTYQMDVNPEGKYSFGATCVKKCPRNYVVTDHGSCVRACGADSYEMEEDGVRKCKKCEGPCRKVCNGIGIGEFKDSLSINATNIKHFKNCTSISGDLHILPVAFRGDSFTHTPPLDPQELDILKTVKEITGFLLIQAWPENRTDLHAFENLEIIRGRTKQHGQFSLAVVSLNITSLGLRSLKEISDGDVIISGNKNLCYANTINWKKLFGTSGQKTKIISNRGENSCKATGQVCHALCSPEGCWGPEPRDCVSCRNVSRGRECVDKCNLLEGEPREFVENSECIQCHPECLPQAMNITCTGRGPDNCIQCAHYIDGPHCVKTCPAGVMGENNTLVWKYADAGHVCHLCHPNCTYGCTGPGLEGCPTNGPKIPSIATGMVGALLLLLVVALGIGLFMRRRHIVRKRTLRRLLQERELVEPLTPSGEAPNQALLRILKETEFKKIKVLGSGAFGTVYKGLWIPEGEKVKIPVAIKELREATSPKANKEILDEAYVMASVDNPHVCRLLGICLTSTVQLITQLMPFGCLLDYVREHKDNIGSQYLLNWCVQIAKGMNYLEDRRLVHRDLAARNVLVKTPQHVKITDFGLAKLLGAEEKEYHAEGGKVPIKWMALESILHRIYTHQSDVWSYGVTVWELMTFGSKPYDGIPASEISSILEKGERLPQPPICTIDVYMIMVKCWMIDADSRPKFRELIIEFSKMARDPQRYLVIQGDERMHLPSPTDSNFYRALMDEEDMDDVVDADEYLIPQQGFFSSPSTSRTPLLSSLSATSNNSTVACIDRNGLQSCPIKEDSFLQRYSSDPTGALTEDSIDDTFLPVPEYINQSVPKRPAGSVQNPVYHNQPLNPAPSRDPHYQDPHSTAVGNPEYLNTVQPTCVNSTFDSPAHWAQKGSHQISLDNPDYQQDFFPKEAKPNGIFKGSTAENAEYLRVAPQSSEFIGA
The data set is described as follows: WT EGFR cellular phosphorylation inhibition in A-431 (hEGF stimulated, MSD).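 Also: electrochemiluminescence read-out of EGFR Tyr1068 phosphorylation expressed as ratio to total EGFR, cells kept in medium with 1% FBS, compounds tested as a concentration series.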 The format is cell-based. The settings on record: A431 cells, 4 h compound, then 100 ng/ml hEGF 10 min.
Procedure: One day before the test, WT or mutant cells were seeded in 96 well plates at appropriate concentrations with corresponding growth media supplemented with 1% FBS, and incubated overnight. The next day, tested compounds at a series of concentrations were added into each individual well of the plates, and the plates were incubated for 4 h at 37° C. with 5% CO2.
The EGFR (Y1068) phosphorylation level (activity) of cells in each well were then measured with MSD kit named “MULTI-SPOT®96 4-Spot HB Prototype EGFR Triplex [sequence]: pEGFR(Tyr1068),pEGFR(Tyr1173), Total EGFR” according to the manufacturer’s instruction (MESO SCALE DISCOVERY, Cat# N45ZB-1). The assay is an electrochemiluminescent method for determining both phosphorylated and total EGFR of cells with an MSD SECTOR® Imager and the ratio of p-EGFR/total EGFR can be generated by the machine. The Her2 (Y1248) phosphorylation level (activity) of cells in each well were measured with MSD Kit named “Phospho-ErbB2 (Tyr1248) Assay Whole Cell Lysate Kit” according to the manufacturer’s instruction (MESO SCALE DISCOVERY, Cat# K151CLD-3). The assay is an electrochemiluminescent method (MESO SCALE DISCOVERY) for determining both phosphorylated and total Her2 of cells with an MSD SECTOR® Imager and then the ratio of p-Her2/total Her2 can be generated by the machine.

Data set [6] concerns Ba/F3 EGFR NPH ins cells. The data set is described as follows: Cell proliferation, Ba/F3 EGFR NPH ins (CellTiter-Glo, 72 h).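 Also: IL3-independent cells carrying constitutively phosphorylated EGFR, compound dilution series, viable cells quantified by ATP luminescence, growth relative to DMSO wells after subtracting pre-dosing (day 0) baseline.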 The format is cell-based. The settings on record: Ba/F3 EGFR, 72 h, Ba/F3 EGFR NPH ins, 72 h proliferation; read-out: EGFR Exon20 NPH insertion GI50.
The subject of data set [7] is Ba/F3 EGFR ASV ins cells. The data set is described as follows: Cell proliferation, Ba/F3 EGFR ASV ins (CellTiter-Glo, 72 h).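 Also: IL3-independent Ba/F3 cells transduced with EGFR V769_D770insASV, cellular ATP luminescence after compound exposure, growth relative to DMSO control with the day-0 baseline reading subtracted.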 The format is cell-based. The settings on record: Ba/F3 EGFR, 72 h, Ba/F3 EGFR ASV ins, 72 h proliferation; read-out: EGFR Exon20 ASV insertion GI50.
The subject of data set [8] is NCI-H1975 EGFR L858R/T790M cells. The data set is described as follows: Cell proliferation, NCI-H1975 EGFR L858R/T790M (CellTiter-Glo, 72 h).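 Also: viable cells quantified by luciferase-based ATP luminescence, proliferation expressed relative to DMSO-treated wells (100%) after subtracting a parallel plate read at the time of dosing.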 The format is cell-based. The settings on record: Homo sapiens, NCI-H1975, 72 h, NCI-H1975, 72 h proliferation; read-out: EGFR L858R and T790M mutation GI50.
In data set [9] the test system is Her2 exon 20 insertion YVMA transduced NIH-3T3 cell line. The data set is described as follows: Cell proliferation, Her2 YVMAins NIH-3T3 (CellTiter-Glo, 72 h).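 Also: viable cells quantified by ATP luminescence, growth over a day-zero baseline plate expressed as percent of DMSO control growth, compound dilution series in 10% FBS medium.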 The format is cell-based. Particulars: Mus musculus, NIH3T3, 72 h, Her2 YVMAins cells, 72 h proliferation; read-out: Her2 Exon 20 YVMA insertion GI50.
For data set [10], the system named is WT EGFR cell line A-431. The data set is described as follows: Cell proliferation, WT EGFR A431 (CellTiter-Glo, 72 h).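 Also: proliferation from a luminescent ATP viability signal, expressed as 100 × (treated minus time-zero plate) over (DMSO control minus time-zero plate), cells grown with 10% FBS.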 The format is cell-based. The settings on record: Homo sapiens, A-431, 72 h, A431, 72 h proliferation; read-out: EGFR WT A431 GI50.
Procedure: WT or mutant cells were seeded in 384 well plates at appropriate concentrations with corresponding growth media supplemented with 10% FBS, for each experiment, identical plates were prepared in duplicates, and the plates were incubated overnight. On the next day, one of each duplicated plates was dosed with tested compounds at a series of concentrations, and another one of the duplicated plate was analysied for G0 value. The dosed plates were incubate for another 72 h at 37° C. with 5% CO2 and the number of viable cells in each well of the G0 plates or the dosed plates were measured by CellTiter-Glo® Luminescent Cell Viability Assay (Promega). This assay is a luminescent method for determining the number viable cells through measurement of cellular ATP concentration by detection of luciferase activity. Detection reagents (15 µl) was dispensed into per well, and the plates were incubate for 30 min at room temperature. Then, the luminescence in each well was measured using the Envision plate reader (PerkinElmer). The percentage of proliferation was calculated based on the formula: %Proliferation= 100 × (G3 value of sample well-Go value)/(G3 value of DMSO control-Go value).
Data set [11] relates to OCI-LY-10 cells. The data set is described as follows: BTK (wt) cell proliferation, OCI-LY-10 (CellTiter-Glo, 72 h).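 Also: viable cells quantified via cellular ATP luminescence, proliferation given as percent of DMSO control after subtracting a duplicate plate read at time of dosing.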 The format is cell-based. Particulars: Homo sapiens, OCI-Ly10, 72 h, OCI-LY-10 cells, 72 h, CellTiter-Glo; read-out: BTK WT OCI-LY-10 GI50.
Data set [12] relates to TMD-8 cells. The data set is described as follows: BTK (wt) cell proliferation, TMD-8 (CellTiter-Glo, 72 h).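 Also: viable cells quantified by ATP-based luminescence, proliferation expressed as percent of DMSO control after subtracting a time-zero baseline plate read at dosing.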 The format is cell-based. The settings on record: Homo sapiens, TMD8, 72 h, TMD-8 cells, 72 h, CellTiter-Glo; read-out: BTK WT TMD-8 GI50.
In data set [13] the test system is Ri-1 cells. The data set is described as follows: BTK (wt) cell proliferation, Ri-1 (CellTiter-Glo, 72 h).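 Also: viable cells quantified as cellular ATP luminescence, proliferation normalized to a time-zero plate and the DMSO control, compounds tested across a dilution series.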 The format is cell-based. The settings on record: Ri-1, 72 h, Ri-1 cells, 72 h, CellTiter-Glo; read-out: BTK WT Ri-1 GI50.
Data set [14] relates to DB cells. The data set is described as follows: BTK (wt) cell proliferation, DB (CellTiter-Glo, 72 h).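 Also: DB cells in 384-well plates given a dilution series of compound, viable cells read by ATP luminescence, growth expressed versus DMSO control after subtracting a time-zero plate reading.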 The format is cell-based. The settings on record: Homo sapiens, DB, DB cells, CellTiter-Glo, read-out: Non-BCR activated DB GI50.
The target in data set [15] is T6, Phospho-BTK (Tyr223) (Homo sapiens, UniProt Q06187).
T6 construct: endogenous in cells; host or cells: Ramos
T6 sequence (Q06187 whole entry): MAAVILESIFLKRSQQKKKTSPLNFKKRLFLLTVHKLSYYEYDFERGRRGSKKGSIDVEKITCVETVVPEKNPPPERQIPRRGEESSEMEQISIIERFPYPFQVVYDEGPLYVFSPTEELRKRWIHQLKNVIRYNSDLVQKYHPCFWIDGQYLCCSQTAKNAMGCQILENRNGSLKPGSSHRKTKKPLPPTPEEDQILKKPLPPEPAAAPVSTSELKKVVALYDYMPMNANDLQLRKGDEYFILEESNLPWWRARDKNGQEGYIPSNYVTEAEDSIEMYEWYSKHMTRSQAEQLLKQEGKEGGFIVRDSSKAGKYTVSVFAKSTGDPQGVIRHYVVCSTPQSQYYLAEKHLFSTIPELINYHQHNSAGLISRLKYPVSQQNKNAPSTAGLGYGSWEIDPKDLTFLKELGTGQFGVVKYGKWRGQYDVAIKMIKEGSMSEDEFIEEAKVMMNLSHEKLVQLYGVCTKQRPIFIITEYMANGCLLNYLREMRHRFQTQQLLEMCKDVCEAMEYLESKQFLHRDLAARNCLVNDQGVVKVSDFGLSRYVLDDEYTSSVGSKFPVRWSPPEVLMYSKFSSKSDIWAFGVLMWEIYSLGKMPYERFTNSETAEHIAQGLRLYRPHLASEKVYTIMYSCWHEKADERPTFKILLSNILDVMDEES
The data set is described as follows: p-BTK assay in Ramos cells (HTRF Phospho-BTK Tyr223). The format is cell-based. The settings on record: pervanadate stimulated, read-out: p-BTK (Romas) IC50.
Procedure: The assay plates were then incubated for 30 minutes at 37° C., 5% CO2. 300 uM Per vanadate (3X) was added to each well and the assay plates were again incubated for 60 minutes at 37° C., 5% CO2. Phospho-BTK (Tyr223) is detected using the HTRF® reagents (Cisbio) according to the manufacturer’s one-plate assay protocol.

For data set [16], the target named is T7, BTK (Homo sapiens, UniProt Q06187). The data set is described as follows: BTK target site occupancy ELISA (PBMC). The format is cell-based. The settings on record: BTK receptor occupancy.
T7 sequence (Q06187 whole entry): as above
Procedure: (§1) An enzyme-linked immunosorbent assay (ELISA) method for the detection of free uninhibited Btk in mouse and human lysates. Human or mouse whole blood were incubated with compound for 2 hour at 37° C. Whole blood were lysed in ice-cold lysis buffer containing 50 mM Tris-HCl, pH 7.5, 150 mM NaCl, 1 mM EDTA,1% Triton X-100. […] Samples were transferred to a streptavidin-coated 96-well ELISA plate and mixed while shaking for 1 hour at room temperature. The α-Btk antibody (1:500; clone number D3H5, Cell signaling Technology, Danvers, MA, USA) was then added to the well and incubated for 1 hour at room temperature. After wash, goat α-rabbit-FW (1:5000 dilution in PBS+ 0.05% Tween-20 + 1% BSA) was added to each well and incubated for 1 h at room temperature. The ELISA was developed with addition of tetramethyl benzidine (TMB) followed by Stop Solution and read at OD 450 nm.
In data set [17] the target is T7, BTK. The data set is described as follows: BTK target site occupancy ELISA (Ramos). The format is cell-based. Set-up: endogenous in cells; host or cells: Ramos. Particulars: BTK receptor occupancy, read-out: Occupancy (Romas) IC50.
Procedure: as §1
The nature of data set [18]: In vitro rat hepatocytes clearance assay. The settings on record: male, rat, cryopreserved rat hepatocytes (suspension), rat hepatocytes Clint (µL/min/10^6cells), 1 µM-range incubation up to 100 min.
Data set [19] is described as follows: In vitro human hepatocytes clearance assay. The settings on record: both, human, cryopreserved human hepatocytes (suspension), human hepatocytes Clint (µL/min/10^6cells), mixed gender human hepatocytes, incubation up to 100 min.
Procedure: The protocol for rat/human hepatocytes metabolic stability assay is employed to determine the clearance of the compounds of the present disclosure in vitro.
Rat hepatocytes in male gender and human hepatocytes in mixed gender were obtained from commercial vendors (e.g., BioreclamationIVT) and stored at -150° C. prior to use. 10 mM stock solutions of tested compounds were prepared in DMSO. Thawing medium and supplement incubation medium (serum-free) were placed in a 37° C. water bath for at least 15 minutes prior to use. Stock solutions were diluted to 100 µM by combining 198 µL acetonitrile and 2 µL of 10 mM stock solution.
Vials of cryopreserved hepatocytes were removed from storage, ensured that vials remain at cryogenic temperatures. The vials were thawed in a 37° C. water bath with gently shaking. Vials were kept in water bath until all ice crystals had dissolved and were no longer visible. Vials were sprayed with 70% ethanol before being transferred to a biosafety cabinet. And then the contents were poured into the 50 mL thawing medium conical tube. Vials were centrifuged at 100 g for 10 minutes at room temperature.
Cell viability and density were counted using a Trypan Blue exclusion, and then cells were diluted with serum-free incubation medium to a working cell density of 1 × 10^6 viable cells/ml. […] The inactivated hepatocytes were used to prepare negative samples, which were used to exclude the misleading factor that resulted from instability of chemical itself.
Aliquots of 247.5 µL hepatocytes were dispensed into each well of a 96-well non-coated plate. The plate was placed in the incubator on an orbital shaker for approximately 10 minutes. Aliquots of 2.5 µL of the 100 µM test compounds were added into respective wells of the non-coated 96-well plate to start the reaction. This assay was performed in duplicate. The plate was incubated in the incubator on an orbital shaker for the designed time points. […] Samples were centrifuges for 20 minutes at 4000 g and aliquots of 100 µL of the supernatants were used for LC-MS/MS analysis for measurement of test compounds
In vitro hepatocyte clearance was estimated based on determination of elimination half-life (T½) of compounds disappearance from their initial concentrations. Peak area ratios of each compound (test or control) to IS was calculated. Ln (%Control) versus Incubation Time (min) curve was plotted, and the slope of a linear fitting line was calculated.
The nature of data set [20]: Rat pharmacokinetic study after oral administration (SOA). The format is in vivo. Particulars: male Han Wistar rats. The method, then:
For rat pharmacokinetic studies, six male Han Wistar rats were purchased from Beijing Vital River and orally dosed with the test compound at 10 mg/kg in 0.5% Tween-80 and 0.5% hydroxypropyl methylcellulose (v/w). At, 0.5, 1, 2, 4, 7 and 16 hours post-dose, blood samples (>100 µL/time point) were collected from portal vein and via cardiac puncture into separate K2EDTA […] tubes, and then immediately centrifuged at 1500 g, 5 min at 4° C. to separate plasma. The plasma samples were deproteinized with 4 fold acetonitrile (including internal standard), vortex for 10 min and centrifuges for 10 minutes at 4000 g at 4° C.. The supernatantswere submitted to LC/MS/MS (API 5500, Applied Biosystems, Foster City) analysis. Two sets of standard curves were run at the beginning and end of each batch from plasma sample analysis.
Compound absorption was measured by portal vein AUC (AUCHPV) and systemic AUC (AUCSYS) observed maximum concentration (Cmax) in rats after oral administration. Dose is the actual dose used in SOA study. Find below in Table 9 data for exemplary tested compounds.

pIC50: −log10 of the molar value. Counter-ions that a name gives are not always drawn.

T1 sequence (P00533 with tags, fused parts or gaps INS773NPH): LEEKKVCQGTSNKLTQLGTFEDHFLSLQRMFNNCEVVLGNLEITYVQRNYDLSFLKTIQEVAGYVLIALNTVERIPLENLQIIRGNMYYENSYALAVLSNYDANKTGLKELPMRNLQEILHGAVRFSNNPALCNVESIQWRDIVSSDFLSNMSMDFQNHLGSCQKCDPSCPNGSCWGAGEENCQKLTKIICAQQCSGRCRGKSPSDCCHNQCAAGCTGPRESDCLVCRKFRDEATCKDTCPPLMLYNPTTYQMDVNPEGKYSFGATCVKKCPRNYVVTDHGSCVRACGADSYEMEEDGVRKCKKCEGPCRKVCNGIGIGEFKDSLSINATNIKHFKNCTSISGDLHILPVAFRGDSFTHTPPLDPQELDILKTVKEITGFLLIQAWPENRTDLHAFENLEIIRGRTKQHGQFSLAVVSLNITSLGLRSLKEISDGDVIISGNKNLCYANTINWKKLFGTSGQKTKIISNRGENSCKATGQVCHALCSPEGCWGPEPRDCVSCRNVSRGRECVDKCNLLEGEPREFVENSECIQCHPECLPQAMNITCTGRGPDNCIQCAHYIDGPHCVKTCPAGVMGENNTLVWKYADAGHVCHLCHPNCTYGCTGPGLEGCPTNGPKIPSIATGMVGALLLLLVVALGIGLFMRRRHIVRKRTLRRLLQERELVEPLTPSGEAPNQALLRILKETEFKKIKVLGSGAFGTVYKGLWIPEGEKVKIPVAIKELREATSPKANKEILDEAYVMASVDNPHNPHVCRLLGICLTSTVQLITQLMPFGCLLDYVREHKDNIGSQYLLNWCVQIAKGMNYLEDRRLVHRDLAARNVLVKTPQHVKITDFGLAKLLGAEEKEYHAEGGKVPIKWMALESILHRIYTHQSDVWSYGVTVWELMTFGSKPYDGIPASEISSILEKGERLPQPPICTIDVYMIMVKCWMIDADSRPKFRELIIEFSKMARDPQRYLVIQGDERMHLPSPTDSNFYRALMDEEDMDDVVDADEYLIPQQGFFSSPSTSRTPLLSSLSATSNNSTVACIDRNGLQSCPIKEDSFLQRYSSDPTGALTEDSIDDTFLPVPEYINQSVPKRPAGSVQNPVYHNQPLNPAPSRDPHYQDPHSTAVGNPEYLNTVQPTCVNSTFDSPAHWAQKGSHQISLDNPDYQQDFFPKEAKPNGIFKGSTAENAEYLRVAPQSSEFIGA

As to `C=CC(=O)Nc1cc(Nc2nccc(Nc3cc(Cl)c(F)cc3C(C)(C)O)n2)c(OC)cc1N1CC[C@@H](NC)C1` [Compound 80, (R)-N-(5-(4-(5-chloro-4-fluoro-2-(2-hydroxypropan-2-yl)phenylamino)pyrimidin-2-ylamino)-4-methoxy-2-(3-(methylamino)pyrrolidin-1-yl)phenyl)acr ylamide TFA salt], the pIC50 was 7.02 in [1]; 7.43 in data set [2]; 8.35 in [3]; 7.29 in data set [4]; 6.46 in [5]; 8.24 in [15]. In addition, the negative-log IC50 (pIC50) in data set [16] is 8.24; in data set [17] it was 8.47. Moreover, the 50% growth inhibitory concentration (GI50) was 0.22 µM in data set [6]; 0.177 µM in [7]; 0.0148 µM in data set [8]; 0.467 µM in data set [9]; 0.0815 µM in data set [10]; 0.0237 µM in data set [11]. In addition, the figures for the 50% growth inhibitory concentration (GI50) in [12], in data set [13] and in data set [14] were 0.0402 µM, over 3 µM and over 3 µM, respectively. Further, the results for the hepatocyte CLint at 1 µM in [18] and in data set [19] were 15.5 µL/min/1e6 cells and 2.81 µL/min/1e6 cells, respectively.

In the case of `C=CC(=O)Nc1cc(Nc2ncnc(Nc3cc(Cl)c(F)cc3C(C)(C)O)n2)c(OC)cc1N1CC(CN(C)C)C1` [Compound 39, N-(5-(4-(5-chloro-4-fluoro-2-(2-hydroxypropan-2-yl)phenylamino)-1,3,5-triazin-2-ylamino)-2-(3-((dimethylamino)methyl)azetidin-1-yl)-4-methoxyphenyl)acrylamide], the pIC50 in data set [1] is 7.34; in data set [2], 7.52; in data set [3] it was 8.74; in data set [4], 7.88; in [5] it was 7.52; in [15] it was 9.05. In addition, the pIC50 in data set [16] was 8.89; in data set [17], 9.00. Moreover, the GI50 was 0.0718 µM in data set [6]; 0.0766 µM in [7]; 0.0055 µM in [8]; 0.0699 µM in [9]; 0.0265 µM in data set [10]; 0.00174 µM in data set [11]. The GI50 is 0.00169 µM in data set [12], 0.00147 µM in data set [13] and over 3 µM in data set [14].

In the case of `C=CC(=O)Nc1cc(Nc2nccc(Nc3cc(Cl)c(F)cc3C(C)(C)O)n2)c(OC)cc1N1CC[C@@H]1CN(C)C` [Compound 53, (R)-N-(5-(4-(5-chloro-4-fluoro-2-(2-hydroxypropan-2-yl)phenylamino)pyrimidin-2-ylamino)-2-(2-((dimethylamino)methyl)azetidin-1-yl)-4-methoxyphenyl)acrylamide], the pIC50 in data set [1] was 7.52; in data set [2] it was 7.59; in data set [3], 8.96; in data set [4], 7.96; in data set [5] it was 6.86; in [15] it was 8.42. Also, the figures for the negative-log IC50 (pIC50) in [16] and in data set [17] were 8.42 and 8.51, respectively. Besides, the concentration for 50% growth inhibition (GI50) in [6] was 0.0893 µM; in data set [7] it was 0.084 µM; in [8], 0.004 µM; in [9], 0.137 µM; in [10] it was 0.0718 µM; in data set [11] it was 0.00916 µM. In addition, the GI50 in data set [12] is 0.00639 µM; in [13] it was 0.0171 µM; in data set [14], over 3 µM. In addition, the “SOA DN AUCSYS (ng·h/mL)/(mg/kg)” value in data set [20] (dose-normalised systemic AUC) is reported as 116 (ng·h/mL)/(mg/kg). Further, the highest level in [20] (rat, plasma, nominal 10 mg/kg (actual dose in c1)) (Cmax) was 195 ng/mL. The results for the hepatocyte CLint at 1 µM in data set [18] and in data set [19] were 12.3 µL/min/1e6 cells and 4.04 µL/min/1e6 cells, respectively.

Take `C=CC(=O)Nc1cc(Nc2ncnc(Nc3cc(Cl)c(F)cc3C(C)(C)O)n2)c(OC)cc1N1CC[C@@H]1CN(C)C` [Compound 38, (R)-N-(5-(4-(5-chloro-4-fluoro-2-(2-hydroxypropan-2-yl)phenylamino)-1,3,5-triazin-2-ylamino)-2-(2-((dimethylamino)methyl)azetidin-1-yl)-4-methoxyphenyl)acrylamide]: the negative logarithm of the IC50 (pIC50) in [1] was 7.71; in [2], 8.10; in data set [3] it was 9.05; in [4], 8.03; in data set [5], 7.72; in data set [15] it was 8.89. For the same molecule, the negative logarithm of the IC50 (pIC50) in [16] is 8.77; in data set [17], 9.10. Besides, the 50% growth inhibitory concentration (GI50) in [6] was 0.0594 µM; in data set [7], 0.0462 µM; in [8] it was 0.0039 µM; in data set [9] it was 0.0848 µM; in data set [10], 0.0197 µM; in data set [11] it was 0.0007 µM. The results for the GI50 in [12], in data set [13] and in data set [14] were 0.00162 µM, 0.00149 µM and over 3 µM, respectively.

Values taken from patent publication US20230293535A1, “ERBB/BTK INHIBITORS” (Dizal (Jiangsu) Pharmaceutical Co., Ltd., priority 2018, published 2023).
